Measurements published in patent publication US11987586B1 (TAKEDA PHARMACEUTICAL COMPANY LIMITED, priority 2022, dated 2024).

The molecules below were run against T1, human OX2 receptor (Homo sapiens, UniProt O43614) (assay: Measurement of orexin type 2 receptor agonist activity (calcium fluorescence, Fluo-4, FDSS)). Conditions: 3 uM test compound; CHO cells expressing human OX2 receptor; DMSO = 0%, 10 nM orexin A (human) = 100%.
T1 construct: expressed in transfected cells
T1 sequence (O43614 1-444): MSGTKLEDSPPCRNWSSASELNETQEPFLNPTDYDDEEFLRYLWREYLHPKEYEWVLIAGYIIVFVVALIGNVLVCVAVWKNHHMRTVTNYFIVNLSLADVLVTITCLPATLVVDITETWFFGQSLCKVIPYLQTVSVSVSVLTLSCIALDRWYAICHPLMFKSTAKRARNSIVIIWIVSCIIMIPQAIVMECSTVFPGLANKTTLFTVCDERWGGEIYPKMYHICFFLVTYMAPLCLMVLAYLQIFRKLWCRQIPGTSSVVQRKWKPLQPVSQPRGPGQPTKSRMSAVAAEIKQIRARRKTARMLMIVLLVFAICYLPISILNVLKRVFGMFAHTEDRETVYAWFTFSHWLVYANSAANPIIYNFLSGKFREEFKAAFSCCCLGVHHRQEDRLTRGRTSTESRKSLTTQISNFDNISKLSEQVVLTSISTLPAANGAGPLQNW
Type: cell-based
Description: In order to obtain cell clones that stably express human orexin type 2 receptor, human orexin type 2 (residues 1-444, NCBI Reference Sequence: AK314279) was constructed in a pcDNA3.1 (+) vector (Invitrogen) to express in mammalian cells. This plasmid DNA was transfected into CHO-K1 cells by electroporation, and stable clones were obtained by limiting dilution using resistance to G418 as a selection marker.
CHO cells in which human OX2 receptor was forcibly expressed were seeded at 10,000 cells/well into a 384-well black transparent bottom plate (BD falcon), and were incubated at 37° C., 5% CO2 for 1 day after incubation at room temperature for 30 minutes. After removing the cell plate medium, assay buffer containing calcium indicator A (HBSS (Thermo Fisher Scientific), 20 mM HEPES (Thermo Fisher Scientific), 0.1% BSA (Sigma-Aldrich), 2.5 μg/mL Fluo-4 AM (Dojin Kagaku), 0.08% Pluronic F127 (Dojin Kagaku), 1.25 mM probenecid (Dojin Kagaku)) was added at 30 μL/well. After incubation in a 5% CO2 incubator at 37° C. for 30 minutes, it was incubated at room temperature for another 30 minutes. Add 10 μL/well of the test compound diluted with assay buffer B (HBSS, 20 mM HEPES, 0.1% BSA), and use FDSS μCELL (Hamamatsu Photonics) to measure the fluorescence value every 1 second for 1 minute, and then every 2 seconds for 1 minute. It was measured for 1 minute and 40 seconds. The amount of fluorescence value when DMSO is added instead of the test compound is defined as 0%, and the amount of fluorescence value when orexin A (human) (Peptide Institute) with a final concentration of 10 nM is added is defined as 100%. The activity (%) of the test compound was calculated.

In order of falling “OX2R agonist activity (3 uM, %)” value:
1. CS(=O)(=O)N[C@@H]1CN2C(=O)N(c3noc4ccc(F)c(-c5c(F)cccc5F)c34)C[C@@H]2C1(F)F [Example 38, N-{(6R,7aR)-2-[4-(2,6-difluorophenyl)-5-fluoro-1,2-benzoxazol-3-yl]-7,7-difluoro-3-oxohexahydro-1H-pyrrolo[1,2-c]imidazol-6-yl}methanesulfonamide]  111%
2. CCS(=O)(=O)N[C@@H]1Cn2c(cn(-c3noc4cc(Cl)cc(-c5c(F)cccc5F)c34)c2=O)C1(F)F [Example 68, N-{(6R)-2-[6-chloro-4-(2,6-difluorophenyl)-1,2-benzoxazol-3-yl]-7,7-difluoro-3-oxo-2,5,6,7-tetrahydro-3H-pyrrolo[1,2-c]imidazol-6-yl}ethanesulfonamide]  109%
3. CCS(=O)(=O)N[C@H]1C[C@H]2CN(c3nsc4cccc(-c5c(F)cccc5F)c34)C(=O)N2C1 [Example 55, N-{(6S,7aS)-2-[4-(2,6-difluorophenyl)-1,2-benzothiazol-3-yl]-3-oxohexahydro-1H-pyrrolo[1,2-c]imidazol-6-yl}ethanesulfonamide]  108%
4. CCS(=O)(=O)N[C@@H]1Cn2c(cn(-c3noc4cc(Cl)cc(-c5c(F)cc(F)cc5F)c34)c2=O)C1(F)F [Example 39, N-{(6R)-2-[6-chloro-4-(2,4,6-trifluorophenyl)-1,2-benzoxazol-3-yl]-7,7-difluoro-3-oxo-2,5,6,7-tetrahydro-3H-pyrrolo[1,2-c]imidazol-6-yl}ethanesulfonamide]  106%
5. CCS(=O)(=O)N[C@@H]1Cn2c(cn(-c3noc4cccc(-c5c(F)cccc5F)c34)c2=O)C1(C)C [Example 70, N-{(6S)-2-[4-(2,6-difluorophenyl)-1,2-benzoxazol-3-yl]-7,7-dimethyl-3-oxo-2,5,6,7-tetrahydro-3H-pyrrolo[1,2-c]imidazol-6-yl}ethanesulfonamide]  105%
6. CS(=O)(=O)N[C@@H]1CN2C(=O)N(c3noc4cc(Cl)c(F)c(-c5c(F)cc(F)cc5F)c34)C[C@@H]2C1(F)F [Example 40, N-{(6R,7aR)-2-[6-chloro-5-fluoro-4-(2,4,6-trifluorophenyl)-1,2-benzoxazol-3-yl]-7,7-difluoro-3-oxohexahydro-1H-pyrrolo[1,2-c]imidazol-6-yl}methanesulfonamide]  103%
7. CS(=O)(=O)N[C@@H]1Cn2c(cn(-c3noc4cc(F)cc(-c5c(F)cccc5F)c34)c2=O)C1(F)F [Example 46, N-{(6R)-2-[4-(2,6-difluorophenyl)-6-fluoro-1,2-benzoxazol-3-yl]-7,7-difluoro-3-oxo-2,5,6,7-tetrahydro-3H-pyrrolo[1,2-c]imidazol-6-yl}methanesulfonamide]  102%
8. CCS(=O)(=O)N[C@H]1Cc2cn(-c3cnc4cccc(-c5c(F)cccc5F)n34)c(=O)n2C1 [Example 37, N-{(6S)-2-[5-(2,6-difluorophenyl)imidazo[1,2-a]pyridin-3-yl]-3-oxo-2,5,6,7-tetrahydro-3H-pyrrolo[1,2-c]imidazol-6-yl}ethanesulfonamide]  101%
9. CCS(=O)(=O)N[C@H]1C[C@H]2CN(c3noc4cc(OC)cc(-c5c(F)cccc5F)c34)C(=O)N2C1 [Example 41, N-{(6S,7aS)-2-[4-(2,6-difluorophenyl)-6-methoxy-1,2-benzoxazol-3-yl]-3-oxohexahydro-1H-pyrrolo[1,2-c]imidazol-6-yl}ethanesulfonamide]  100%
10. O=C1N(c2noc3cccc(-c4c(F)cccc4F)c23)C[C@@H]2C[C@H](NS(=O)(=O)C(F)F)CN12 [Example 43, N-{(6S,7aS)-2-[4-(2,6-difluorophenyl)-1,2-benzoxazol-3-yl]-3-oxohexahydro-1H-pyrrolo[1,2-c]imidazol-6-yl}-1,1-difluoromethanesulfonamide]  100%
11. CCS(=O)(=O)N[C@H]1C[C@H]2CN(c3noc4cc(C5CC5)cc(-c5c(F)cccc5F)c34)C(=O)N2C1 [Example 56, N-{(6S,7aS)-2-[6-cyclopropyl-4-(2,6-difluorophenyl)-1,2-benzoxazol-3-yl]-3-oxohexahydro-1H-pyrrolo[1,2-c]imidazol-6-yl}ethanesulfonamide]  99%
12. CCS(=O)(=O)N[C@H]1C[C@H]2CN(c3noc4cccc(-c5c(F)cc(F)cc5F)c34)C(=O)N2C1 [Example 65, N-{(6S,7aS)-3-oxo-2-[4-(2,4,6-trifluorophenyl)-1,2-benzoxazol-3-yl]hexahydro-1H-pyrrolo[1,2-c]imidazol-6-yl}ethanesulfonamide]  99%
13. CCS(=O)(=O)N[C@H]1C[C@H]2CN(c3noc4ccc(F)c(-c5c(F)cccc5F)c34)C(=O)N2C1 [Example 66, N-{(6S,7aS)-2-[4-(2,6-difluorophenyl)-5-fluoro-1,2-benzoxazol-3-yl]-3-oxohexahydro-1H-pyrrolo[1,2-c]imidazol-6-yl}ethanesulfonamide]  97%
14. CCS(=O)(=O)N[C@@H]1CN2C(=O)N(c3noc4cc(Cl)cc(-c5c(F)cccc5F)c34)C[C@@H]2C1(F)F [Example 67, N-{(6R,7aR)-2-[6-chloro-4-(2,6-difluorophenyl)-1,2-benzoxazol-3-yl]-7,7-difluoro-3-oxohexahydro-1H-pyrrolo[1,2-c]imidazol-6-yl}ethanesulfonamide]  97%
15. CCS(=O)(=O)N[C@@H]1CN2C(=O)N(c3noc4cc(F)cc(-c5c(F)cccc5F)c34)C[C@@H]2C1(F)F [Example 69, N-{(6R,7aR)-2-[4-(2,6-difluorophenyl)-6-fluoro-1,2-benzoxazol-3-yl]-7,7-difluoro-3-oxohexahydro-1H-pyrrolo[1,2-c]imidazol-6-yl}ethanesulfonamide]  96%
16. CCS(=O)(=O)N[C@H]1C[C@@H]2CN(c3noc4cccc(-c5c(F)cccc5F)c34)C(=O)N2C1 [Example 49, N-{(6S, 7aR)-2-[4-(2,6-difluorophenyl)-1,2-benzoxazol-3-yl]-3-oxohexahydro-1H-pyrrolo[1,2-c]imidazol-6-yl}ethanesulfonamide]  94%
17. CS(=O)(=O)N[C@@H]1CN2C(=O)N(c3noc4ccc(F)c(-c5c(F)cc(F)cc5F)c34)C[C@@H]2C1(F)F [Example 47, N-{(6R,7aR)-7,7-Difluoro-2-[5-fluoro-4-(2,4,6-trifluorophenyl)-1,2-benzoxazol-3-yl]-3-oxohexahydro-1H-pyrrolo[1,2-c]imidazol-6-yl}methanesulfonamide]  91%
18. CCS(=O)(=O)N[C@@H]1CN2C(=O)N(c3noc4cccc(-c5c(F)cccc5F)c34)C[C@]2(C)C1 [Example 57, N-{(6S,7aS)-2-[4-(2,6-difluorophenyl)-1,2-benzoxazol-3-yl]-7a-methyl-3-oxohexahydro-1H-pyrrolo[1,2-c]imidazol-6-yl}ethanesulfonamide]  88%
19. CCS(=O)(=O)N[C@H]1C[C@H]2CN(c3noc4c(Cl)ccc(-c5c(F)cccc5F)c34)C(=O)N2C1 [Example 58, N-{(6S,7aS)-2-[7-chloro-4-(2,6-difluorophenyl)-1,2-benzoxazol-3-yl]-3-oxohexahydro-1H-pyrrolo[1,2-c]imidazol-6-yl}ethanesulfonamide]  88%
